Assay [1] deals with p38 MAPKα (Homo sapiens (Human), UniProt Q16539). The experiment in a line: p38 MAPKα enzyme inhibition (FRET, Z-LYTE; Method 2). Format: biochemical. The protocol: (§1) The enzyme inhibitory activities of compounds disclosed herein are determined by FRET using synthetic peptides labelled with both donor and acceptor fluorophores (Z-LYTE, Invitrogen Ltd., Paisley, UK).
The inhibitory activities of test compounds against the p38 MAPKα isoform (MAPK14: Invitrogen), are evaluated indirectly by determining the level of activation/phosphorylation of the down-stream molecule, MAPKAP-K2. The p38 MAPKα protein (80 ng/mL, 2.5 μL) is mixed with the test compound (2.5 μL of either 4 μg/mL, 0.4 μg/mL, 0.04 μg/mL or 0.004 μg/mL) for 2 hr at RT. […] The mixture is incubated for 1 hr at RT. Development reagent (protease, 5 μL) is added for 1 hr prior to detection in a fluorescence microplate reader (Varioskan® Flash, ThermoFisher Scientific).
Method 2 This method follows the same steps as Method 1 above, but utilises a higher concentration of the p38 MAPKα protein (2.5 μL of 200 ng/mL protein instead of 2.5 μL of 80 ng/mL protein) for mixing with the test compound.
(§2) In all cases, the site-specific protease cleaves non-phosphorylated peptide only and eliminates the FRET signal. Phosphorylation levels of each reaction are calculated using the ratio of coumarin emission (donor) over fluorescein emission (acceptor), for which high ratios indicate high phosphorylation and low ratios indicate low phosphorylation levels. The percentage inhibition of each reaction is calculated relative to non-inhibited control and the 50% inhibitory concentration (IC50 value) is then calculated from the concentration-response curve.

Assay [2] deals with Syk (Homo sapiens (Human), UniProt P43405). Kind of assay: Syk enzyme inhibition (FRET, Z-LYTE). It is filed as biochemical. How it is done: as §1
(§3) The inhibitory activities of compounds of the invention against c-Src and Syk enzymes (Invitrogen), are evaluated in a similar fashion to that described hereinabove. The relevant enzyme (3000 ng/mL or 2000 ng/mL respectively, 2.5 μL) is incubated with the test compound (either 4 μg/mL, 0.4 μg/mL, 0.04 μg/mL, or 0.004 μg/mL, 2.5 μL each) for 2 hr at RT. The FRET peptides (8 μM. 2.5 μL), and appropriate ATP solutions (2.5 μL, 800 μM for c-Src, and 60 μM ATP for Syk) are then added to the enzymes/compound mixtures and incubated for 1 hr. Development reagent (protease, 5 μL) is added for 1 hr prior to detection in a fluorescence microplate reader (Varioskan® Flash, ThermoFisher Scientific).
as §2

Assay [3] deals with c-Src (Homo sapiens (Human), UniProt P12931). Kind of assay: c-Src enzyme inhibition (FRET, Z-LYTE). It is filed as biochemical. How it is done:
as §1, §3, §2

Assay [4] concerns the target GSK3α (Homo sapiens (Human), UniProt P49840). Kind of assay: GSK 3α enzyme inhibition (FRET, Z-LYTE; Method 2). Format: biochemical. How it is done:
as §1
The inhibitory activities of compounds of the invention against the GSK 3α enzyme isoform (Invitrogen), are evaluated by determining the level of activation/phosphorylation of the target peptide. The GSK3-α protein (500 ng/mL, 2.5 μL) is mixed with the test compound (2.5 μL at either 4 μg/mL, 0.4 μg/mL, 0.04 μg/mL, or 0.004 μg/mL) for 2 hr at RT. The FRET peptide (8 μM, 2.5 μL), which is a phosphorylation target for GSK3α, and ATP (40 μM, 2.5 μL) are then added to the enzyme/compound mixture and the resulting mixture incubated for 1 hr. Development reagent (protease, 5 μL) is added for 1 hr prior to detection in a fluorescence microplate reader (Varioskan® Flash, ThermoFisher Scientific).
as §2
This method follows the same steps as Method 1 above, but utilises a shorter period of mixing of the test compound (105 minutes instead of 2 hours) with the GSK3-α protein.

Assay [5] deals with PBMCs. Kind of assay: LPS-induced TNFα/IL-8 release in PBMC cells. It is filed as cell-based. The following applies: Homo sapiens, LPS-stimulated PBMCs, IL-8, read-out: IC50 Values for Inhibition of Cytokine Release, PBMCs IL-8. How it is done: Peripheral blood mononuclear cells (PBMCs) from healthy subjects are separated from whole blood using a density gradient (Lymphoprep, Axis-Shield Healthcare). The PBMCs are seeded in 96 well plates and treated with compounds at the desired concentration for 2 hours before addition of 1 ng/mL LPS (Escherichia Coli 0111:B4 from Sigma Aldrich) for 24 hours under normal tissue culture conditions (37° C., 5% CO2). The supernatant is harvested for determination of IL-8 and TNFα concentrations by sandwich ELISA (Duo-set, R&D systems) and read on the fluorescence microplate reader (Varioskan® Flash, ThermoFisher Scientific). The concentration at 50% inhibition (IC50) of IL-8 and TNFα production is calculated from the dose response curve.

Assay [6] relates to PBMCs. Kind of assay: IL-2 and IFN gamma release in CD3/CD28 stimulated PBMC cells. The following applies: Homo sapiens, IL-2, read-out: IC50 Values for Inhibition of Cytokine Release, PBMCs IL-2. Format: cell-based. The protocol:
PBMCs from healthy subjects are separated from whole blood using a density gradient (Lymphoprep, Axis-Shield Healthcare). Cells are added to a 96 well plate pre-coated with a mixture of CD3/[…] monoclonal antibodies (0.3 μg/mL eBioscience and 3 μg/mL BD Pharmingen respectively). Compound at the desired concentration is then added to the wells and the plate left for 3 days under normal tissue culture conditions. Supernatants are harvested and IL-2 and IFN gamma release determined by Sandwich ELISA (Duo-set, R&D System). The IC50 is determined from the dose response curve.

pIC50: −log10 of the molar value.

Chain of c-Src (P12931 whole entry, looked up): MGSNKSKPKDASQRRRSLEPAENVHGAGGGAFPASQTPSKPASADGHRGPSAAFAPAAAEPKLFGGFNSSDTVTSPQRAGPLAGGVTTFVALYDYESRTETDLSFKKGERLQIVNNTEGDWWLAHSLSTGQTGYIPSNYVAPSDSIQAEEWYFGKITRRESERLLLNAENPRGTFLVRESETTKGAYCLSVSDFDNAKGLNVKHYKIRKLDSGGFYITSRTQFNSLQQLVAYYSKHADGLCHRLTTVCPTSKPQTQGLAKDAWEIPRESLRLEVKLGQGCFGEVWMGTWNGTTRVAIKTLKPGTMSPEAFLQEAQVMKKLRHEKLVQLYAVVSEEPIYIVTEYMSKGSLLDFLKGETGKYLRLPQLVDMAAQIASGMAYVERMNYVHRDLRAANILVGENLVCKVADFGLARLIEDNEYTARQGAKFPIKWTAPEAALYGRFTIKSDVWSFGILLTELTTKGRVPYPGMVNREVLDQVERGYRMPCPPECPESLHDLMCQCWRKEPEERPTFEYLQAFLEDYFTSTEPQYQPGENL
Chain of GSK3α (P49840 whole entry): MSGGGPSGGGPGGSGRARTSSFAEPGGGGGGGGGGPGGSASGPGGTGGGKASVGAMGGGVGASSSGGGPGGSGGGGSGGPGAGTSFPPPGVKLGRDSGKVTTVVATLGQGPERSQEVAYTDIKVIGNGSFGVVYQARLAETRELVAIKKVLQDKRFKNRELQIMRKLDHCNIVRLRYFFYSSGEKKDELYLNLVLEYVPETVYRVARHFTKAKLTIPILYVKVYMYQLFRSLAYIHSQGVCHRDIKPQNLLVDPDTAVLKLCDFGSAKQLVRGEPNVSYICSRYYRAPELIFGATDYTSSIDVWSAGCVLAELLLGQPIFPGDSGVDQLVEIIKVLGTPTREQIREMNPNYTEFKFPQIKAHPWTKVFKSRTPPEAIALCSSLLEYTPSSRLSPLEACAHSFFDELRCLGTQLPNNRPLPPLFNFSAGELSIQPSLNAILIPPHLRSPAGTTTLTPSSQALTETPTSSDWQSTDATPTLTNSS
Chain of p38 MAPKα (Q16539 whole entry, canonical isoform): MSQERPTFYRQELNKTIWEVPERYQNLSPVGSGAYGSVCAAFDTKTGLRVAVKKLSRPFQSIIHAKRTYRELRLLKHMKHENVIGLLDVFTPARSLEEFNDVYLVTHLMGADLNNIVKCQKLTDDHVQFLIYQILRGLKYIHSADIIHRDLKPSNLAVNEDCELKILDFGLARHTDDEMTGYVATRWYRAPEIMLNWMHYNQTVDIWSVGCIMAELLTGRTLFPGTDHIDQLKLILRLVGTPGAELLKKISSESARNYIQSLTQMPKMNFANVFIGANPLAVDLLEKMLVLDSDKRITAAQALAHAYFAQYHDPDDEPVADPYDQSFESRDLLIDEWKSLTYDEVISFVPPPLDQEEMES

Turning to `Cc1cc(Nc2nccc(Oc3ccc(NC(=O)Nc4cc(C(C)(C)C)nn4-c4ccc(P(C)(C)=O)cc4)c4ccccc34)n2)cc2cn[nH]c12` [Example 21, 1-(3-(tert-Butyl)-1-(4-(dimethylphosphoryl)phenyl)-1H-pyrazol-5-yl)-3-(4-((2-((7-methyl-1H-indazol-5-yl)amino)pyrimidin-4-yl)oxy)naphthalen-1-yl)urea], the pIC50 in assay [1] is 7.36; in assay [2], 8.70; in assay [3], 9.00; in assay [4], 6.12; in assay [5], 8.47.

Take `CCP(=O)(CC)c1ccc(-n2nc(C(C)(C)C)cc2NC(=O)Nc2ccc(Oc3ccnc(Nc4ccccc4)n3)c3ccccc23)cc1` [Example 22, 1-(3-(tert-Butyl)-1-(4-(diethylphosphoryl)phenyl)-1H-pyrazol-5-yl)-3-(4-((2-(phenylamino)-pyrimidin-4-yl)oxy)naphthalen-1-yl)urea]: the pIC50 in assay [1] was 7.17; in assay [2] it was 6.70; in assay [3], 8.05; in assay [4], 6.09; in assay [5], 7.48.

On to `CC(C)(C)c1cc(NC(=O)Nc2ccc(Oc3ccnc(Nc4ccc(S(F)(F)(F)(F)F)cc4)n3)c3ccccc23)n(-c2ccc(P(C)(C)=O)cc2)n1` [Example 28, 1-(3-(tert-Butyl)-1-(4-(dimethylphosphoryl)phenyl)-1H-pyrazol-5-yl)-3-(4-((2-((4-(Pentafluorothio)phenyl)amino)pyrimidin-4-yl)oxy)naphthalen-1-yl)urea], for which the pIC50 is below 6.00 in assay [1]; 6.05 in assay [2]; 6.43 in assay [3]; below 5.00 in assay [4]; 6.67 in assay [5].

Turning to `CC(C)(C)c1cc(NC(=O)Nc2ccc(Oc3ccnc(Sc4ccccc4)n3)c3ccccc23)n(-c2ccc(P(C)(C)=O)cc2)n1` [Example 29, 1-(3-(tert-Butyl)-1-(4-(dimethylphosphoryl)phenyl)-1H-pyrazol-5-yl)-3-(4-((2-(phenylthio)-pyrimidin-4-yl)oxy)naphthalen-1-yl)urea], the pIC50 was 6.83 in assay [1]; below 6.00 in assay [2]; below 6.00 in assay [3]; below 5.00 in assay [4]; 6.82 in assay [5].

For the molecule `CN(CCCO)c1nccc(Oc2ccc(NC(=O)Nc3cc(C(C)(C)C)nn3-c3ccc(P(C)(C)=O)cc3)c3ccccc23)n1` [Example 30, 1-(3-(tert-Butyl)-1-(4-(dimethylphosphoryl)phenyl)-1H-pyrazol-5-yl)-3-(4-((2-((3-hydroxy-propyl)(methyl)amino)pyrimidin-4-yl)oxy)naphthalen-1-yl)urea], the negative logarithm of the IC50 (pIC50) was 7.57 in assay [1]; below 6.00 in assay [2]; 6.10 in assay [3]; below 5.00 in assay [4]; 6.55 in assay [5].

For `C[Si](C)(C)c1cc(NC(=O)Nc2ccc(Oc3ccnc(Nc4ccccc4)n3)c3ccccc23)n(-c2cccc(CP(C)(C)=O)c2)n1` [Example 35, 1-(1-(3-((Dimethylphosphoryl)methyl)phenyl)-3-(trimethylsilyl)-1H-pyrazol-5-yl)-3-(4-((2-(phenylamino)pyrimidin-4-yl)oxy)naphthalen-1-yl)urea], the pIC50 in assay [6] is 7.11; in assay [4], 5.90; in assay [5], 8.12.

As for `CCP(=O)(CC)Cc1cccc(-n2nc(C(C)(C)C)cc2NC(=O)Nc2ccc(Oc3ccnc(Nc4cc(C)c5[nH]ncc5c4)n3)c3ccccc23)c1` [Example 36, 1-(3-(tert-Butyl)-1-(3-((diethylphosphoryl)methyl)phenyl)-1H-pyrazol-5-yl)-3-(4-((2-((7-methyl-1H-indazol-5-yl)amino)pyrimidin-4-yl)oxy)naphthalen-1-yl)urea], the pIC50 in assay [1] is 6.80; in assay [2], 8.05; in assay [3] it was 8.10; in assay [4], 5.47; in assay [5] it was 8.46.

For `Cc1cc(Nc2nccc(Oc3ccc(NC(=O)Nc4cc(C(C)C)nn4-c4cccc(CP(C)(C)=O)c4)c4ccccc34)n2)cc2cn[nH]c12` [Example 37, 1-(1-(3-((Dimethylphosphoryl)methyl)phenyl)-3-isopropyl-1H-pyrazol-5-yl)-3-(4-((2-((7-methyl-1H-indazol-5-yl)amino)pyrimidin-4-yl)oxy)naphthalen-1-yl)urea], the negative-log IC50 (pIC50) in assay [1] is 7.15; in assay [2] it was 8.30; in assay [3], 8.00; in assay [4], 5.31; in assay [5], 8.52.

Turning to `COc1cc(Nc2cc(Oc3ccc(NC(=O)Nc4cc(C(C)C)nn4-c4cccc(CP(C)(C)=O)c4)c4ccccc34)ccn2)cc(C(=O)NCCN2CCOCC2)c1` [Example 50, 3-((4-((4-(3-(1-(3-((Dimethylphosphoryl)methyl)phenyl)-3-isopropyl-1H-pyrazol-5-yl)-ureido)naphthalen-1-yl)oxy)pyridin-2-yl)amino)-5-methoxy-N-(2-morpholinoethyl)-benzamide], the pIC50 in assay [1] was 7.62; in assay [6], 7.79; in assay [4], 5.68; in assay [5], 9.00.

Take `COc1cc(Nc2cc(Oc3ccc(NC(=O)Nc4cc(C(C)C)nn4-c4cccc(CP(C)(C)=O)c4)c4ccccc34)ccn2)cc(OCCN2CCOCC2)c1` [Example 51, 1-(1-(3-((Dimethylphosphoryl)methyl)phenyl)-3-isopropyl-1H-pyrazol-5-yl)-3-(4-((2-((3-methoxy-5-(2-morpholinoethoxy)phenyl)amino)pyridin-4-yl)oxy)naphthalen-1-yl)urea]: the pIC50 was 7.24 in assay [1]; 8.10 in assay [3]; 8.21 in assay [6]; 5.55 in assay [4]; 9.30 in assay [5].

Turning to `COCCOCCOCCOCCOc1cc(Nc2nccc(Oc3ccc(NC(=O)Nc4cc(C(C)C)nn4-c4cccc(CP(C)(C)=O)c4)c4ccccc34)n2)cc(OC)c1` [Example 52, 1-(4-((2-((3-(2,5,8,11-Tetraoxatridecan-13-yloxy)-5-methoxyphenyl)amino)pyrimidin-4-yl)oxy)naphthalen-1-yl)-3-(1-(3-((dimethylphosphoryl)methyl)phenyl)-3-isopropyl-1H-pyrazol-5-yl)urea], the negative logarithm of the IC50 (pIC50) in assay [1] is 7.74; in assay [2], 8.40; in assay [3] it was 8.52; in assay [6], 7.94; in assay [4], 5.92; in assay [5], 8.48.

A word on the pIC50: it is the IC50 on a negative log10 scale, so that one unit is a factor of ten.

Source of the values: patent US9796742B2, “Kinase inhibitors” (Respivert Limited, priority 2012, dated 2017).
